Reference: patent US6737383B1, “Herbicidal oxadiazolidines” (priority 1999, dated 2004)

Columns and labels:
surinam grass = test: Test B pre/postemergence surinam grass; format: in vivo, Brachiaria decumbens
In short: (§1)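 Herbicidal effect was estimated by eye on a ten-point control scale after plants spent twelve to sixteen days in a greenhouse following soil or foliar treatment. Foliar sprays targeted plants at one to four leaves; all doses were formulated in a non-phytotoxic solvent with surfactant.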

cocklebur = test: Test B pre/postemergence cocklebur; format: in vivo, Xanthium strumarium
In short: as §1

corn = test: Test B pre/postemergence corn; format: in vivo, Zea mays
In short: as §1

crabgrass = test: Test B pre/postemergence crabgrass; format: in vivo, Digitaria sanguinalis
In short: as §1

giant foxtail = test: Test B pre/postemergence giant foxtail; format: in vivo, Setaria faberii
In short: as §1

morningglory = test: Test B pre/postemergence morningglory; format: in vivo, Ipomoea hederacea
In short: as §1

pigweed = test: Test B pre/postemergence pigweed; format: in vivo, Amaranthus retroflexus
In short: as §1

rape = test: Test B pre/postemergence rape; format: in vivo, Brassica napus
In short: as §1

soybean = test: Test B pre/postemergence soybean; format: in vivo, Glycine max
In short: as §1

sugar beet = test: Test B pre/postemergence sugar beet; format: in vivo, Beta vulgaris
In short: as §1

wild oat = test: Test B pre/postemergence wild oat; format: in vivo, Avena fatua
In short: as §1

purple nutsedge = test: Test B pre/postemergence purple nutsedge; format: in vivo, Cyperus rotundus
In short: as §1

rice = test: Test B flood test rice; format: in vivo, Oryza sativa
In short: (§2)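 Read-out is a visual response score from 0 (no effect) to 10 (complete control), assigned by comparison with untreated controls. Treatment was applied at the 2-leaf stage, and plants stayed in the greenhouse for twelve to sixteen days before scoring.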

smallflower flatsedge = test: Test B flood test smallflower flatsedge; format: in vivo, Cyperus difformis
In short: as §2

duck salad = test: Test B flood test duck salad; format: in vivo, Heteranthera limosa
In short: as §2

bamyardgrass = test: Test B flood test barnyardgrass; format: in vivo, Echinochloa crus-galli
In short: as §2

[1] = Postemergence, Rate 125 g/ha, scale 0 to 10, 0 is no effect, 10 is complete control
[2] = Preemergence, Rate 62 g/ha, scale of 0 to 10 where 0 is no effect and 10 is complete control
[3] = Preemergence, Rate 250 g/ha, scale of 0 to 10 where 0 is no effect and 10 is complete control
[4] = Preemergence, Rate 500 g/ha, scale of 0 to 10 where 0 is no effect and 10 is complete control
[5] = Rate 62 g/ha, Postemergence, scale 0 to 10 (0 no effect, 10 complete control)
[6] = Rate 250 g/ha, Postemergence, scale of 0 to 10 where 0 is no effect and 10 is complete control
[7] = Rate 500 g/ha, Postemergence, scale 0 to 10, 0 no effect, 10 complete control
[8] = Rate 62 g/ha, headed Pre-emergence (flood test species), scale 0 to 10 (0 no effect, 10 complete control)
[9] = Rate 125 g/ha, Pre-emergence, flood test species, scale 0 to 10 where 0 is no effect and 10 is complete control
[10] = Rate 250 g/ha, Pre-emergence, flood-test species, scale 0 to 10, 0 is no effect, 10 is complete control
[11] = Rate 500 g/ha, Pre-emergence, flood test species, scale 0 to 10 (0 no effect, 10 complete control)

For `CC(C)N(C(=O)n1oc(=O)n(C2CC3CCC2C3)c1=O)c1ccc(F)cc1` (stereo not drawn) [Compound 327], the “Plant response rating, B. signalgrass” value (surinam grass; [1]) was 0, the “B. signalgrass plant response rating” value (surinam grass; [2]) was 0 and the “B. signalgrass plant response rating (0 to 10 scale, 0 is no effect, 10 is complete control)” value (surinam grass; Preemergence, Rate 125 g/ha) was 0. The “B. signalgrass plant response rating” value (surinam grass; [3]) was 1, the “B. signalgrass plant response rating” value (surinam grass; [4]) was 7 and the “B. signalgrass plant response rating” value (surinam grass; [5]) was 0. For the same compound, the “Plant response rating, B. signalgrass” value (surinam grass; [6]) was 0, the “Plant response rating, B. signalgrass” value (surinam grass; [7]) was 0 and the “Plant response rating, Cocklebur” value (cocklebur; [1]) was 0. For the same compound, the “Cocklebur plant response rating” value (cocklebur; [2]) was 0, the “Cocklebur plant response rating (0 to 10 scale)” value (cocklebur; Preemergence, Rate 125 g/ha) was 0 and the “Cocklebur plant response rating” value (cocklebur; [3]) was 0. For the same compound, the “Cocklebur plant response rating” value (cocklebur; [4]) was 0, the “Cocklebur plant response rating” value (cocklebur; [5]) was 0 and the “Plant response rating, Cocklebur” value (cocklebur; [6]) was 0. The “Plant response rating, Cocklebur” value (cocklebur; [7]) was 0, the “Plant response rating, Corn” value (corn; [1]) was 0 and the “Corn plant response rating” value (corn; [2]) was 0. The “Corn plant response rating (0 to 10 scale)” value (corn; Preemergence, Rate 125 g/ha) was 0, the “Corn plant response rating” value (corn; [3]) was 0 and the “Corn plant response rating” value (corn; [4]) was 0. The “Corn plant response rating” value (corn; [5]) was 0, the “Plant response rating, Corn” value (corn; [6]) was 0 and the “Plant response rating, Corn” value (corn; [7]) was 0. For the same compound, the “Plant response rating, Crabgrass” value (crabgrass; [1]) was 0, the “Crabgrass plant response rating” value (crabgrass; [2]) was 0 and the “Crabgrass plant response rating (0 to 10 scale)” value (crabgrass; Preemergence, Rate 125 g/ha) was 2. For the same compound, the “Crabgrass plant response rating” value (crabgrass; [3]) was 3, the “Crabgrass plant response rating” value (crabgrass; [4]) was 5 and the “Crabgrass plant response rating” value (crabgrass; [5]) was 0. The “Plant response rating, Crabgrass” value (crabgrass; [6]) was 0, the “Plant response rating, Crabgrass” value (crabgrass; [7]) was 1 and the “Plant response rating, Giant foxtail” value (giant foxtail; [1]) was 0. For the same compound, the “Giant foxtail plant response rating” value (giant foxtail; [2]) was 7, the “Giant foxtail plant response rating (0 to 10 scale)” value (giant foxtail; Preemergence, Rate 125 g/ha) was 8 and the “Giant foxtail plant response rating” value (giant foxtail; [3]) was 9. For the same compound, the “Giant foxtail plant response rating” value (giant foxtail; [4]) was 9, the “Giant foxtail plant response rating” value (giant foxtail; [5]) was 0 and the “Plant response rating, Giant foxtail” value (giant foxtail; [6]) was 0. The “Plant response rating, Giant foxtail” value (giant foxtail; [7]) was 0, the “Plant response rating, Morningglory” value (morningglory; [1]) was 8 and the “Morningglory plant response rating” value (morningglory; [2]) was 0. For the same compound, the “Morningglory plant response rating (0 to 10 scale)” value (morningglory; Preemergence, Rate 125 g/ha) was 0, the “Morningglory plant response rating” value (morningglory; [3]) was 0 and the “Morningglory plant response rating” value (morningglory; [4]) was 0. For the same compound, the “Morningglory plant response rating” value (morningglory; [5]) was 7, the “Plant response rating, Morningglory” value (morningglory; [6]) was 8 and the “Plant response rating, Morningglory” value (morningglory; [7]) was 10. The “Plant response rating, Redroot pigweed” value (pigweed; [1]) was 5, the “Redroot pigweed plant response rating” value (pigweed; [2]) was 0 and the “Redroot pigweed plant response rating (0 to 10 scale)” value (pigweed; Preemergence, Rate 125 g/ha) was 0. The “Redroot pigweed plant response rating” value (pigweed; [3]) was 1, the “Redroot pigweed plant response rating” value (pigweed; [4]) was 3 and the “Redroot pigweed plant response rating” value (pigweed; [5]) was 4. For the same compound, the “Plant response rating, Redroot pigweed” value (pigweed; [6]) was 6, the “Plant response rating, Redroot pigweed” value (pigweed; [7]) was 7 and the “Plant response rating, Rape” value (rape; [1]) was 0. For the same compound, the “Rape plant response rating” value (rape; [2]) was 0, the “Rape plant response rating (0 to 10 scale)” value (rape; Preemergence, Rate 125 g/ha) was 0 and the “Rape plant response rating” value (rape; [3]) was 0. The “Rape plant response rating” value (rape; [4]) was 2, the “Rape plant response rating” value (rape; [5]) was 0 and the “Plant response rating, Rape” value (rape; [6]) was 2. The “Plant response rating, Rape” value (rape; [7]) was 2, the “Plant response rating, Soybean” value (soybean; [1]) was 6 and the “Soybean plant response rating” value (soybean; [2]) was 0. For the same compound, the “Soybean plant response rating (0 to 10 scale)” value (soybean; Preemergence, Rate 125 g/ha) was 0, the “Soybean plant response rating” value (soybean; [3]) was 0 and the “Soybean plant response rating” value (soybean; [4]) was 0. The “Soybean plant response rating” value (soybean; [5]) was 5, the “Plant response rating, Soybean” value (soybean; [6]) was 6 and the “Plant response rating, Soybean” value (soybean; [7]) was 7. The “Plant response rating, Sugarbeets” value (sugar beet; [1]) was 0, the “Sugarbeets plant response rating” value (sugar beet; [2]) was 0 and the “Sugarbeets plant response rating (0 to 10 scale)” value (sugar beet; Preemergence, Rate 125 g/ha) was 0. For the same compound, the “Sugarbeets plant response rating” value (sugar beet; [3]) was 0, the “Sugarbeets plant response rating” value (sugar beet; [4]) was 3 and the “Sugarbeets plant response rating” value (sugar beet; [5]) was 0. The “Plant response rating, Sugarbeets” value (sugar beet; [6]) was 0, the “Plant response rating, Sugarbeets” value (sugar beet; [7]) was 0 and the “Plant response rating, Wild oats” value (wild oat; [1]) was 0. For the same compound, the “Wild oats plant response rating” value (wild oat; [2]) was 0, the “Wild oats plant response rating (0 to 10 scale)” value (wild oat; Preemergence, Rate 125 g/ha) was 0 and the “Wild oats plant response rating” value (wild oat; [3]) was 0. The “Wild oats plant response rating” value (wild oat; [4]) was 4, the “Wild oats plant response rating” value (wild oat; [5]) was 0 and the “Plant response rating, Wild oats” value (wild oat; [6]) was 0. For the same compound, the “Plant response rating, Wild oats” value (wild oat; [7]) was 0, the “Plant response rating, Nutsedge” value (purple nutsedge; [1]) was 0 and the “Nutsedge plant response rating (0 to 10 scale)” value (purple nutsedge; Preemergence, Rate 125 g/ha) was 0. For the same compound, the “Nutsedge plant response rating” value (purple nutsedge; [3]) was 0, the “Nutsedge plant response rating” value (purple nutsedge; [4]) was 0 and the “Nutsedge plant response rating” value (purple nutsedge; [5]) was 0. For the same compound, the “Plant response rating, Nutsedge” value (purple nutsedge; [6]) was 0, the “Plant response rating, Nutsedge” value (purple nutsedge; [7]) was 0 and the “Rice plant response rating” value (rice; [8]) was 0. The “Rice plant response rating” value (rice; [9]) was 0, the “Rice plant response rating” value (rice; [10]) was 0 and the “Rice plant response rating” value (rice; [11]) was 0. The “S. Flatsedge plant response rating” value (smallflower flatsedge; [8]) was 0, the “S. Flatsedge plant response rating” value (smallflower flatsedge; [9]) was 0 and the “S. Flatsedge plant response rating” value (smallflower flatsedge; [10]) was 0. For the same compound, the “S. Flatsedge plant response rating” value (smallflower flatsedge; [11]) was 0, the “Ducksalad plant response rating” value (duck salad; [8]) was 0 and the “Ducksalad plant response rating” value (duck salad; [9]) was 0. For the same compound, the “Ducksalad plant response rating” value (duck salad; [10]) was 0, the “Ducksalad plant response rating” value (duck salad; [11]) was 0 and the “Barnyardgrass plant response rating” value (bamyardgrass; [8]) was 0. For the same compound, the “Barnyardgrass plant response rating” value (bamyardgrass; [9]) was 0, the “Barnyardgrass plant response rating” value (bamyardgrass; [10]) was 3 and the “Barnyardgrass plant response rating” value (bamyardgrass; [11]) was 0.
